We go through one molecule from publication PMC4307180, “Overcoming myelosuppression due to synthetic lethal toxicity for FLT3-targeted acute myeloid leukemia therapy” (eLife, 2014).

Usually IC50 stands for the concentration that inhibits the measured activity by half. What is called inhibition is the percentage by which the read-out fell short of the control.

Entries after “also recorded” stand apart in the source; their conditions may differ.

One series addresses KIT (Homo sapiens, UniProt P10721). Briefly: Reaction Biology Corp kinase assay at Km-ATP (Figure 1C), KIT.
Another series deals with Ba/F3 FLT3 ITD + F691L. Description: Ba/F3 cell viability, FLT3 ITD + F691L. Format: cell-based. Particulars: Mus musculus, Ba/F3, 48 hr, ± SEM. As to the method:
(§1) Stable Ba/F3 lines were generated by retroviral spinfection with the appropriate mutated plasmid as previously described ([Smith et al., 2012]).
(§2) Exponentially growing cells (5 × 10^3 cells per well) were plated in each well of a 96-well plate with 0.1 ml of RPMI 1640 + 10% (vol/vol) FCS containing the appropriate concentration of drug in triplicate, and cell viability was assessed after 48 hr as previously described ([Smith et al., 2012]). […] Log10-scale transformation of ratios, followed by conditional formatting using xcel spreadsheet software yielded the colored diagrams shown.
(§3) Mutations isolated in the screen were engineered into pMSCVpuroFLT3–ITD by QuikChange mutagenesis (Stratagene, La Jolla, CA) as previously described ([Smith et al., 2012]).

The subject of the next series is Ba/F3 FLT3 ITD + D835V. Briefly: Ba/F3 cell viability, FLT3 ITD + D835V. Particulars: Mus musculus, Ba/F3, 48 hr, ± SEM. Format: cell-based. The method, then: as §1, §2, §3
Series [1] has as its system primary patient FLT3-ITD+ AML circulating blasts. Briefly: Colony-forming assay, primary patient FLT3-ITD+ AML blasts. The series is classed as cell-based, human. From the text: (§4) Primary AML blood samples and/or marrow aspirates were obtained on an IRB-approved protocol at the University of California, San Francisco. Informed consent was obtained in accordance with the Declaration of Helsinki. Mononuclear cells were purified by density centrifugation (Ficoll–Paque Plus, GE Healthsciences) before cryopreservation in 10% (vol/vol) DMSO or FCS (primary ITD and D835-mutant assays, Figure 3A–C) or immediate use in assays (Normal BM and SPB, Figure 3D–F). Normal BM and stimulated peripheral blood (SPB) samples were collected from donors at the UCSF oncology/hematology division. Cells were then suspended in MethoCult methylcellulose (Stem Cell Technologies, product no. H4435 Enriched, Canada) in 15-ml Falcon tubes, vigorously vortexed, bubbles settled over 10 min. Triplicates then plated via blunt-nosed syringe (1.1 ml each) into 3-cm dishes, avoiding bubble generation, and each dish placed in a larger 10-cm dish with water trough in an incubator (37°C, 5% CO2) for 13–14 days. Colonies were counted individually using traditional microscopy. CFU and BFU types reported separately (CFU-GEMM colonies counted as one of each).

Series [2] has as its system mpo+ myeloid cells in zebrafish embryos. Briefly: Zebrafish normal myelopoiesis, mpo WISH in posterior blood island. Format: in vivo, Danio rerio (zebrafish). The note with it: 10 μM, 6 to 30 hpf, read at 30 hpf, vs DMSO. The method, then:
Figure 4. […] (N–P) Three categories of mpo transcription (N, normal; O, intermediate; P, severe) were defined based on the WISH results (three experiments). […] Scale bar equals 500 μm. Blue arrows indicate the pericardial edema, green arrows indicate tail shortening and curving, and red arrows indicate the FLT3-ITD AML mpo+ myeloid cells expansion. […] For all experiments: Zebrafish embryos were collected and kept in standard E3 medium at 28°C. Different concentrations of either drug were added to the E3 medium from 6 hr post fertilization (hpf) to 3 days post fertilization (dpf). Embryos treated with DMSO or 10 μM drug from 6 to 30 hpf were collected for mpo whole mount in situ hybridization (WISH) analysis. […] plasmid DNA containing FLT3/ITD sequence was microinjected into one-cell stage embryos, and the uninjected embryos were used as control. FLT3/ITD-injected embryos were treated with DMSO or 10 μM drug from 6 to 30 hpf.
Wild-type (WT) zebrafish were maintained under standard conditions, and embryos were staged as described ([He et al., 2014]). The study was approved by the Committee of the Use of Live Animals for Teaching and Research in The University of Hong Kong.

Series [3] deals with normal bone marrow (BM) and stimulated peripheral blood (SPB) hematopoietic progenitors. Briefly: Colony-forming assay, normal BM and stimulated peripheral blood. Format: cell-based, human.
From the text: as §4, with “each). Results shown for FLT3 ITD primary blasts (Figure 3B) are a combination of leukemic blast colonies and BFU colonies.” for “each).”

Series [4] deals with Molm14 cells (FLT3-ITD heterozygous). Briefly: Cell proliferation/viability assay, Molm14. Format: cell-based. The note with it: Homo sapiens, MOLM-14, 48 hr, ± SEM. The method, then:
as §2

Sequence of KIT (P10721 26-976): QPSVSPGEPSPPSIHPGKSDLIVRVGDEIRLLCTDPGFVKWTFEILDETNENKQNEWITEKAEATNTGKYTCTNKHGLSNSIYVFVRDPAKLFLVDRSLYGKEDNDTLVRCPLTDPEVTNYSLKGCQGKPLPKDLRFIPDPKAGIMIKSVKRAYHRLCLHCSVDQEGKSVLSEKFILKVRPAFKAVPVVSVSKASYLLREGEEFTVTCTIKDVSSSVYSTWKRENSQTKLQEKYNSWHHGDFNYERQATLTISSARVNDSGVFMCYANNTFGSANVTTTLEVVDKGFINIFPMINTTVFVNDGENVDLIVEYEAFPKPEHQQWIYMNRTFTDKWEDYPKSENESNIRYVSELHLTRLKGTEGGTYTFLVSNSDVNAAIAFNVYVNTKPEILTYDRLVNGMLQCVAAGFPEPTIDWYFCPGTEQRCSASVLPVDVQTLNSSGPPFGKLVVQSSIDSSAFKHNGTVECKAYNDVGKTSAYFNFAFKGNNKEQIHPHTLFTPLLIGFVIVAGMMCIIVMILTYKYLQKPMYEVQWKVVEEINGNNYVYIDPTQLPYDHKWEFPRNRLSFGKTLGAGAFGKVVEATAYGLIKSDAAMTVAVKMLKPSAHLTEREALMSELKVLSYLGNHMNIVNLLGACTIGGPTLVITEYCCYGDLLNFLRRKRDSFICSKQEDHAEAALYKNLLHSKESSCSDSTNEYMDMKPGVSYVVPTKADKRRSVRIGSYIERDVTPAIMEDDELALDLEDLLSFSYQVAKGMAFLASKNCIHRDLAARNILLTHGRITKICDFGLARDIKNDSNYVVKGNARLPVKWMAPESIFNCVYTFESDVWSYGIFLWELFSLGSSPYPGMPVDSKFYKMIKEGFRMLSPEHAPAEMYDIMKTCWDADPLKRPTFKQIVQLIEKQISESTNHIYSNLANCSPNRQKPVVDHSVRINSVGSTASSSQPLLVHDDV

With `CC1NC(=O)c2c1c1c3ccccc3n(CCCN)c1c1[nH]c3ccccc3c21` (stereo not shown) [Star 27], the half-inhibitory concentration (IC50) at KIT was 1020 nM; with Ba/F3 FLT3 ITD + F691L, 144 ± 97 nM; in the series on Ba/F3 FLT3 ITD + D835V it was 70 ± 58 nM; in series [4] it was 57 ± 8 nM. Also, the inhibition at 1 µM in series [1] (Homo sapiens, at 1000 nM, read-out: inhibition of colony formation, FLT3-ITD+ blasts) is above 80%. In addition, in series [1] (at 1,000 nM, ca. 1,200 CFUs in DMSO plates), the “raw colony numbers, FLT3-ITD+ blasts” value is recorded as “ca. 20”. For the same molecule, the “effect on mpo+ myeloid cells development in the PBI” value in series [2] was “no statistically significant change; also recorded: non-significant difference”. Moreover, in series [3] (all Star 27-treated conditions), the “raw colony numbers, normal BM, BFUs” value is recorded as “ca. 400”. In addition, the “raw colony numbers, normal BM, CFUs” value in series [3] (all Star 27-treated conditions) is “ca. 300”. The “effect on normal hematopoietic colony formation (CFU and BFU)” value in series [3] (normal BM and SPB donors, up to 1,000 nM) was “no effect on hematopoiesis up to 1,000 nM; also recorded: no significant effect up to a concentration of 1,000 nM”.
